Reference: patent US20100168102A9, “Amide Derivatives as Kinase Inhibitors” (Devgen NV, priority 2005, published 2010)
Read-outs that look alike come from different tables or passages of the source.

Tests used:
human ROCKα/ROCKII mix = target: T1, human ROCKα/ROCKII mix (Homo sapiens, UniProt O75116); assay: Biochemical assay for ROCK (fluorescence polarization, ROCK IMAP Kit); conditions: Table 2, compounds of Formula XIII
T1 construct: purchased Upstate Biotechnology 14-451

PKC epsilon = target: T2, PKC epsilon (Homo sapiens, UniProt Q02156); assay: Biochemical assay for PKC epsilon (fluorescence polarization, Protein Kinase C Assay Kit, Red); conditions: Table 2, compounds of Formula XIII
T2 construct: purchased Invitrogen P2282
T2 sequence (Q02156 1-737): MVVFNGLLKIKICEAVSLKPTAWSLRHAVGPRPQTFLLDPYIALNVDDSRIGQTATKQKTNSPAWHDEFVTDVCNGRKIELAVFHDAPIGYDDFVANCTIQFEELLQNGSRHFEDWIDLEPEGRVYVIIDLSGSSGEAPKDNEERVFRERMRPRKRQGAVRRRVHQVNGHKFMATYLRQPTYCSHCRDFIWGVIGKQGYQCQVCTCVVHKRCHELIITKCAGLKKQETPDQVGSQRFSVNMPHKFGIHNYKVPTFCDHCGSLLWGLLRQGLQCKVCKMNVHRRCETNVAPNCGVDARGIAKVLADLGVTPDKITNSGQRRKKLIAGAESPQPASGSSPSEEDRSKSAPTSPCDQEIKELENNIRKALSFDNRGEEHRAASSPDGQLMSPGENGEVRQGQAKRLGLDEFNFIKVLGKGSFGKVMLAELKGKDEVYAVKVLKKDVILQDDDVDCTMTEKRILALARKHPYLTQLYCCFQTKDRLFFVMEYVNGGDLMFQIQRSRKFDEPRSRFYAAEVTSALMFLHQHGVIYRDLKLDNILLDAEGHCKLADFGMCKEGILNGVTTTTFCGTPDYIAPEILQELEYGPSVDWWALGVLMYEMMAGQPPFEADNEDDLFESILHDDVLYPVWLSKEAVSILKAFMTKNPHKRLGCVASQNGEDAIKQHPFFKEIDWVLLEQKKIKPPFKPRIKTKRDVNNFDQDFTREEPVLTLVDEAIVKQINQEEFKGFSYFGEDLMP
In short: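 Read-out was fluorescence-polarization competition between phosphorylated substrate and a rhodamine PKC tracer for an anti-phosphoserine antibody, added with EDTA stop after an 80 min room-temperature kinase reaction with ATP and protein substrate (Mg2+/Ca2+ buffer). Enzyme (10 ng/ml final) was preincubated with compound for 30 min.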

T1 sequence (O75116 11-552 limits assumed): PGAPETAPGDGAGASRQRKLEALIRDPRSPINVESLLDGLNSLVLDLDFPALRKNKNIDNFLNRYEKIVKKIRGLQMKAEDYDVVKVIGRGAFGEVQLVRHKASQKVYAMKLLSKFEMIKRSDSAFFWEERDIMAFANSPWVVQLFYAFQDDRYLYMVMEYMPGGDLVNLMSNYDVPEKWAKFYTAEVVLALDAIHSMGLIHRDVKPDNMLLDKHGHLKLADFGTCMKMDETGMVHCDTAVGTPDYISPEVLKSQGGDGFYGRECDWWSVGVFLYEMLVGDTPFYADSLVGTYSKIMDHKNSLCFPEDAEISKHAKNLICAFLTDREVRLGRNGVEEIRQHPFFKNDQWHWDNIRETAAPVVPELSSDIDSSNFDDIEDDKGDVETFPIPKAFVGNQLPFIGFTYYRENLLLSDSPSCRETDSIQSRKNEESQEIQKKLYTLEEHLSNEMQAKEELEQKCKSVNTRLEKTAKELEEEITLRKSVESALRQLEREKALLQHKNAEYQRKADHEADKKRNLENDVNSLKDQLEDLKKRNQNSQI

Row | IC50 (human ROCKα/ROCKII mix) | IC50 (PKC epsilon; read-out: IC50 μM PKCε) | IC50 (PKC epsilon; IC50 μM PKCε) | Compound
1 | 0.5 to 5 µM | 5 to 50 µM |  | NC(CNC(=O)c1c[nH]cn1)c1ccc(C(=O)Nc2ccncc2)cc1 (centres unmarked) [Compound 122, 1H-Imidazole-4-carboxylic acid {2-amino-2-[4-(pyridin-4-ylcarbamoyl)-phenyl]-ethyl}-amide]
2 | 0.5 to 5 µM | 5 to 50 µM |  | Nc1c(C(=O)NCC(N)c2ccc(C(=O)Nc3ccncc3)cc2)cnn1-c1ccc(F)cc1 (centres unmarked) [Compound 123, 5-Amino-1-(4-fluorophenyl)-1H-pyrazole-4-carboxylic acid {2-amino-2-[4-(pyridin-4-ylcarbamoyl)-phenyl]-ethyl}-amide]
3 | 0.5 to 5 µM | 5 to 50 µM |  | NC(CNC(=O)c1csc(-c2ccccc2)n1)c1ccc(C(=O)Nc2ccncc2)cc1 (centres unmarked) [Compound 124, 2-Phenyl-thiazole-4-carboxylic acid {2-amino-2-[4-(pyridin-4-ylcarbamoyl)-phenyl]-ethyl}-amide]
4 | 0.5 to 5 µM | 0.5 to 5 µM |  | NC(CNC(=O)c1csc(Nc2ccc(F)cc2)n1)c1ccc(C(=O)Nc2ccncc2)cc1 (centres unmarked) [Compound 125, 2-(4-Fluoro-phenylamino)-thiazole-4-carboxylic acid {2-amino-2-[4-(pyridin-4-ylcarbamoyl)phenyl]-ethyl}-amide]
5 | 0.5 to 5 µM | 5 to 50 µM |  | Cc1nc(-c2ccccc2)sc1C(=O)NCC(N)c1ccc(C(=O)Nc2ccncc2)cc1 (centres unmarked) [Compound 126, 4-Methyl-2-Phenyl-thiazole-5-carboxylic acid {2-amino-2-[4-(pyridin-4-ylcarbamoyl)-phenyl]-ethyl}-amide]
6 | 0.5 to 5 µM | 5 to 50 µM |  | NC(CNC(=O)c1ccc2[nH]nnc2c1)c1ccc(C(=O)Nc2ccncc2)cc1 (centres unmarked) [Compound 127, 1H-Benzotriazole-5-carboxylic acid {2-amino-2-[4-(pyridin-4-ylcarbamoyl)-phenyl]-ethyl}-amide]
7 | 0.5 to 5 µM | 5 to 50 µM |  | COc1ccc2[nH]c(C(=O)NCC(N)c3ccc(C(=O)Nc4ccncc4)cc3)cc2c1 (centres unmarked) [Compound 128, 5-Methoxy-1H-indole-2-carboxylic acid {2-amino-2-[4-(pyridin-4-ylcarbamoyl)-phenyl]-ethyl}-amide]
8 | 0.5 to 5 µM | 5 to 50 µM |  | NC(CNC(=O)c1cc2cc(F)ccc2[nH]1)c1ccc(C(=O)Nc2ccncc2)cc1 (centres unmarked) [Compound 129, 5-Fluoro-1H-indole-2-carboxylic acid {2-amino-2-[4-(pyridin-4-ylcarbamoyl)-phenyl]-ethyl}-amide]
9 | 0.5 to 5 µM | 5 to 50 µM |  | NC(CNC(=O)c1cc2ccccc2[nH]1)c1ccc(C(=O)Nc2ccncc2)cc1 (centres unmarked) [Compound 130, 1H-Indole-2-carboxylic acid {2-amino-2-[4-(pyridin-4-ylcarbamoyl)-phenyl]-ethyl}-amide]
10 | 0.5 to 5 µM | 5 to 50 µM |  | NC(CNC(=O)c1ccc2cc[nH]c2c1)c1ccc(C(=O)Nc2ccncc2)cc1 (centres unmarked) [Compound 131, 1H-Indole-6-carboxylic acid {2-amino-2-[4-(pyridin-4-ylcarbamoyl)-phenyl]-ethyl}-amide]
11 | 0.05 to 0.5 µM | 0.5 to 5 µM |  | NC(CNC(=O)c1ccc2[nH]ccc2c1)c1ccc(C(=O)Nc2ccncc2)cc1 (centres unmarked) [Compound 132, 1H-Indole-5-carboxylic acid {2-amino-2-[4-(pyridin-4-ylcarbamoyl)-phenyl]-ethyl}-amide]
12 | 0.05 to 0.5 µM | 5 to 50 µM |  | COc1cccc2cc(C(=O)NCC(N)c3ccc(C(=O)Nc4ccncc4)cc3)oc12 (centres unmarked) [Compound 133, 7-Methoxy-benzofuran-2-carboxylic acid {2-amino-2-[4-(pyridin-4-ylcarbamoyl)-phenyl]-ethyl}-amide]
13 | 0.5 to 5 µM | 5 to 50 µM |  | NC(CNC(=O)c1cc2cc(Cl)ccc2o1)c1ccc(C(=O)Nc2ccncc2)cc1 (centres unmarked) [Compound 134, 5-Chloro-benzofuran-2-carboxylic acid {2-amino-2-[4-(pyridin-4-ylcarbamoyl)-phenyl]-ethyl}-amide]
14 | 0.5 to 5 µM | 5 to 50 µM |  | NC(CNC(=O)Cc1ccc2ccccc2c1)c1ccc(C(=O)Nc2ccncc2)cc1 (centres unmarked) [Compound 135, 4-[1-Amino-2-(2-naphtalen-2-yl-acetylamino)-ethyl]-N-pyridin-4-yl-bennzamide]
15 | 0.5 to 5 µM | 5 to 50 µM |  | NC(CNC(=O)C(c1ccccc1)C1CCCC1)c1ccc(C(=O)Nc2ccncc2)cc1 (centres unmarked) [Compound 136, 4-[1-Amino-2-(2-cyclopentyl-2-phenyl-acetylamino)-ethyl]-N-pyridin-4-yl-bennzamide]
16 | 0.5 to 5 µM | 0.05 to 0.5 µM |  | NC(CNC(=O)C1(c2ccccc2)CC1)c1ccc(C(=O)Nc2ccncc2)cc1 (centres unmarked) [Compound 137, 4-{1-Amino-2-[(1-phenyl-cyclopropanecarbonyl)-amino]-ethyl}-N-pyridin-4-yl-benzamide]

Row | IC50 (human ROCKα/ROCKII mix) | IC50 (PKC epsilon; read-out: IC50 μM PKCε) | IC50 (PKC epsilon; IC50 μM PKCε) | Compound
17 | 0.5 to 5 µM | 5 to 50 µM |  | COc1ccccc1CC(=O)NCC(N)c1ccc(C(=O)Nc2ccncc2)cc1 (centres unmarked) [Compound 138, 4-{1-amino-2-[2-(2-methoxy-phenyl)-acetylamino]-ethyl}-N-pyridin-4-yl-benzamide]
18 | 0.05 to 0.5 µM | 0.5 to 5 µM |  | COc1cccc(CC(=O)NCC(N)c2ccc(C(=O)Nc3ccncc3)cc2)c1 (centres unmarked) [Compound 139, 4-{1-amino-2-[2-(3-methoxy-phenyl)-acetylamino]-ethyl}-N-pyridin-4-yl-benzamide]
19 | 0.05 to 0.5 µM | 5 to 50 µM |  | COc1ccc(CC(=O)NCC(N)c2ccc(C(=O)Nc3ccncc3)cc2)cc1 (centres unmarked) [Compound 140, 4-{1-amino-2-[2-(4-methoxy-phenyl)-acetylamino]-ethyl}-N-pyridin-4-yl-benzamide]
20 | 0.05 to 0.5 µM | 5 to 50 µM |  | NC(CNC(=O)Cc1ccc2c(c1)OCO2)c1ccc(C(=O)Nc2ccncc2)cc1 (centres unmarked) [Compound 141, 4-{1-amino-2-(2-benzo[1,3]dioxol-5-yl-acetylamino)-ethyl]-N-pyridin-4-yl-benzamide]
21 | 0.05 to 0.5 µM | 0.5 to 5 µM |  | Cc1ccccc1CC(=O)NCC(N)c1ccc(C(=O)Nc2ccncc2)cc1 (centres unmarked) [Compound 142, 4-{1-Amino-2-[2-(2-methyl-phenyl)-acetylamino]-ethyl}-N-pyridin-4-yl-benzamide]
22 | 0.05 to 0.5 µM | 0.5 to 5 µM |  | Cc1cccc(CC(=O)NCC(N)c2ccc(C(=O)Nc3ccncc3)cc2)c1 (centres unmarked) [Compound 143, 4-{1-Amino-2-[2-(3-methyl-phenyl)-acetylamino]-ethyl}-N-pyridin-4-yl-benzamide]
23 | 0.5 to 5 µM | 0.5 to 5 µM |  | Cc1ccc(C)c(CC(=O)NCC(N)c2ccc(C(=O)Nc3ccncc3)cc2)c1 (centres unmarked) [Compound 144, 4-{1-Amino-2-[2-(2,5-dimethyl-phenyl)-aceylamino]-ethyl}-N-pyridin-4-yl-benzamide]
24 | 0.05 to 0.5 µM | 0.5 to 5 µM |  | Cc1ccc(CC(=O)NCC(N)c2ccc(C(=O)Nc3ccncc3)cc2)cc1 (centres unmarked) [Compound 145, 4-{1-Amino-2-[2-(4-methyl-phenyl)-acetylamino]-ethyl}-N-pyridin-4-yl-benzamide]
25 | 0.5 to 5 µM | 5 to 50 µM |  | NC(CNC(=O)Cc1ccc(-c2ccccc2)cc1)c1ccc(C(=O)Nc2ccncc2)cc1 (centres unmarked) [Compound 146, 4-[1-Amino-2-(2-biphenyl-4-yl-acetylamino)-ethyl]-N-pyridin-4-yl-benzamide]
26 | 0.05 to 0.5 µM | 0.5 to 5 µM |  | NC(CNC(=O)Cc1cccc(Cl)c1)c1ccc(C(=O)Nc2ccncc2)cc1 (centres unmarked) [Compound 147, 4-{1-Amino-2-[2-(3-chloro-phenyl)-acetylamino]-ethyl}-N-pyridin-4-yl-benzamide]
27 | 0.05 to 0.5 µM | 0.05 to 0.5 µM |  | NC(CNC(=O)Cc1ccc(F)cc1)c1ccc(C(=O)Nc2ccncc2)cc1 (centres unmarked) [Compound 148, 4-{1-Amino-2-[2-(4-fluoro-phenyl)-acetylamino]-ethyl}-N-pyridin-4-yl-benzamide]
28 | 0.5 to 5 µM |  | 0.5 to 5 µM | NC(CNC(=O)Cc1c(F)cccc1F)c1ccc(C(=O)Nc2ccncc2)cc1 (centres unmarked) [Compound 149, 4-{1-Amino-2-[2-(2,6-difluororo-phenyl)-acetylamino]-ethyl}-N-pyridin-4-yl-benzamide]
29 | 0.5 to 5 µM | 5 to 50 µM |  | NC(CNC(=O)Cc1ccccn1)c1ccc(C(=O)Nc2ccncc2)cc1 (centres unmarked) [Compound 150, 4-[1-Amino-2-(2-pyridin-2-yl-acetylamino)-ethyl]-N-pyridin-4-yl-benzamide]
30 | 0.5 to 5 µM | 5 to 50 µM |  | NC(CNC(=O)Cc1ccncc1)c1ccc(C(=O)Nc2ccncc2)cc1 (centres unmarked) [Compound 151, 4-[1-Amino-2-(2-pyridin-4-yl-acetylamino)-ethyl]-N-pyridin-4-yl-benzamide]
31 | 0.05 to 0.5 µM | 0.5 to 5 µM |  | NC(CNC(=O)Cc1c[nH]c2ccccc12)c1ccc(C(=O)Nc2ccncc2)cc1 (centres unmarked) [Compound 152, 4-[1-Amino-2-(2-1H-indol-3-yl-acetylamino)-ethyl]-N-pyridin-4-yl-benzamide]
